Here are results for seven compounds from ChEMBL document CHEMBL5108080 (J Med Chem, 2022).

The subject of assay [1] is Influenza A virus. The assay can be described thus: Antiviral activity against group 2 influenza A virus H3N2 (A/Hong Kong-11/1968) infected in human A549 cells assessed as inhibition of viral entry preincubated with compound for 30 mins followed by viral infection for 1 hour further incubated for 48 hrs with replacement of fresh medium containing compound. It counts as functional, organism-based.

Assay [2] has as its system Influenza A virus. The assay can be described thus: Antiviral activity against group 2 influenza A virus H3N2 (A/Victoria/361/2011) infected in human A549 cells assessed as inhibition of viral entry preincubated with compound for 30 mins followed by viral infection for 1 hour further incubated for 48 hrs with replacement of fresh medium containing compound. The assay is classed as functional, organism-based.

With `Brc1ccc(-c2nc3ncccn3c2NC2CCCCC2)cc1`, the concentration giving a half-maximal response (EC50) in the assay on Influenza A virus [1] came to 190 nM; in the assay with Influenza A virus [2], 1500 nM.

As for `Oc1ccc(-c2nc3ncccn3c2NC2CCCCC2)cc1`, the EC50 with Influenza A virus [1] came out at 360 nM; with Influenza A virus [2] it was 1500 nM.

For `Fc1ccc(-c2nc3ncccn3c2NC2CCCCC2)cc1`, the EC50 worked out at 320 nM with Influenza A virus [1] and 420 nM with Influenza A virus [2].

Consider `Cc1cc(Br)ccc1-c1nc2ncccn2c1NC1CCCCC1`, for which the EC50 in the assay with Influenza A virus [1] is 340 nM. With `c1ccc(-c2nc3ncccn3c2NC2CCCCC2)cc1`, the concentration giving a half-maximal response (EC50) in the assay on Influenza A virus [1] was determined as 71 nM; in the assay on Influenza A virus [2], 730 nM. In the same order, the values of `COc1ccc(-c2nc3ncccn3c2NC2CCCCC2)cc1` are 30 nM and 640 nM. For `CCOC(=O)C1=C[C@@H](OC(CC)CC)[C@H](NC(C)=O)[C@@H](N)C1` [OSELTAMIVIR] the same measures were 22 nM and greater than 10000 nM.

What is called EC50 is the midpoint of the concentration-response curve.
